The record followed here is ChEMBL document CHEMBL3046226, “Novel glycol benzyl ether herbicides: Herbicidal activity of 3,3a,5,9b-tetrahydro-2H-furo[3,2-c][2]benzopyran derivatives” (2006).

Assay type in all cases: functional
Test [1] concerns Echinochloa crus-galli. Description: Herbicidal activity against Echinochloa crus-galli (barnyard grass).
Test [2] relates to Echinochloa crus-galli. Description: Herbicidal activity against Echinochloa crus-galli (barnyard grass) assessed as growth rate at 3 g/acre.
Test [3] has as its system Oryza sativa. Description: Phytotoxicity in Oryza sativa (rice) assessed as assessed as growth rate at 10 g/acre by Oryza sativa (rice) injury assay.
In test [4] the test system is Echinochloa crus-galli. Description: Herbicidal activity against Echinochloa crus-galli (barnyard grass) assessed as growth rate at 1 g/acre.
Test [5] deals with Echinochloa crus-galli. Briefly: Herbicidal activity against Echinochloa crus-galli (barnyard grass) assessed as growth rate at 30 g/acre.
Test [6] has as its system Oryza sativa. Briefly: Phytotoxicity in Oryza sativa (rice) assessed as assessed as growth rate at 30 g/acre by Oryza sativa (rice) injury assay.

≈ marks a conversion by molar mass, not a printed value.

Regarding `CC[C@H]1O[C@@H]2c3sccc3CO[C@@H]2[C@H]1OCc1ccccc1F`, the MIC (as a rule, the least concentration at which growth counts as inhibited) in the test with Echinochloa crus-galli [1] stood at 0.1 µg/mL (≈ 0.299 µM). In addition, the Activity with Echinochloa crus-galli [2] came to 0%; in the test on Oryza sativa [3] it was 6%; in the test with Echinochloa crus-galli [4] it was 6%; with Echinochloa crus-galli [5], 0%; in the test with Oryza sativa [6] it was 0%.

As to `CC[C@H]1O[C@@H]2c3occc3CO[C@@H]2[C@H]1OCc1ccccc1C`, the MIC against Echinochloa crus-galli [1] worked out at 0.2 µg/mL (≈ 0.636 µM). Further, the Activity with Echinochloa crus-galli [2] is given as 41%; in the test on Oryza sativa [3], 91%; with Echinochloa crus-galli [4] it was 91%; with Echinochloa crus-galli [5] it was 6%; in the test on Oryza sativa [6], 71%.

Consider `CC[C@H]1O[C@@H]2c3ccccc3CO[C@@H]2[C@H]1O[Si](C)(C)C(C)(C)C`, for which the MIC against Echinochloa crus-galli [1] was more than 100 µg/mL. Moreover, the Activity in the test with Echinochloa crus-galli [2], in the test on Oryza sativa [3], in the test on Echinochloa crus-galli [4], with Echinochloa crus-galli [5] and in the test with Oryza sativa [6] was 91% throughout.

For the molecule `CC[C@H]1O[C@@H]2c3ccccc3CO[C@@H]2[C@H]1OCc1cccs1`, in the test on Echinochloa crus-galli [1], 0.8 µg/mL (≈ 2.53 µM) was the least that counted as inhibitory (MIC). Also, the Activity with Echinochloa crus-galli [2] turned out to be 11%; in the test on Oryza sativa [3] it was 91%; in the test on Echinochloa crus-galli [4], 91%; in the test with Echinochloa crus-galli [5] it was 0%; in the test on Oryza sativa [6], 91%.

For `CC[C@H]1O[C@@H]2c3ccccc3[C@@H](C)O[C@@H]2[C@H]1OCc1ccccc1F`, the MIC with Echinochloa crus-galli [1] worked out at 0.7 µg/mL (≈ 2.04 µM). Further, the Activity with Echinochloa crus-galli [2] is reported as 6%; with Oryza sativa [3], 91%; in the test on Echinochloa crus-galli [4], 11%; in the test with Echinochloa crus-galli [5] it was 0%; in the test on Oryza sativa [6], 0%.

On to `CC[C@H]1O[C@@H]2c3ccccc3CO[C@@H]2[C@H]1OCc1ccccc1F`, for which, in the test with Echinochloa crus-galli [1], the lowest concentration to inhibit growth (MIC) was 0.2 µg/mL (≈ 0.609 µM). Also, the Activity in the test on Echinochloa crus-galli [2] is 6%; in the test with Oryza sativa [3], 71%; with Echinochloa crus-galli [4] it was 11%; in the test with Echinochloa crus-galli [5] it was 0%; in the test on Oryza sativa [6], 11%.

In the test with Echinochloa crus-galli [1], `CC[C@H]1O[C@@H]2c3ccccc3CO[C@@H]2[C@H]1OCc1ccsc1` returned an MIC of 0.3 µg/mL (≈ 0.948 µM). For the same molecule, the Activity in the test on Echinochloa crus-galli [2] worked out at 71%; in the test on Oryza sativa [3], 91%; with Echinochloa crus-galli [4], 91%; with Echinochloa crus-galli [5], 0%; in the test on Oryza sativa [6], 91%.

On to `CC[C@H]1O[C@@H]2c3ccccc3CO[C@@H]2[C@H]1OCc1ccccc1C`, for which, in the test with Echinochloa crus-galli [1], the MIC came to 0.4 µg/mL (≈ 1.23 µM). For the same molecule, the Activity with Echinochloa crus-galli [2] came to 0%; in the test with Oryza sativa [3], 11%; in the test with Echinochloa crus-galli [4] it was 11%; in the test with Echinochloa crus-galli [5] it was 0%; in the test on Oryza sativa [6], 0%.

In turn, `CC[C@H]1O[C@@H]2c3ccccc3CO[C@@H]2[C@H]1OCc1ccccc1C#N` yielded an MIC in the test with Echinochloa crus-galli [1] of 3.2 µg/mL (≈ 9.54 µM). Also, the Activity with Echinochloa crus-galli [2] turned out to be 91%; in the test on Oryza sativa [3], 91%; in the test on Echinochloa crus-galli [4] it was 91%; with Echinochloa crus-galli [5], 0%; in the test with Oryza sativa [6], 91%.

Consider `CC[C@H]1O[C@@H]2c3ccccc3CO[C@@H]2[C@H]1OCc1ccc(F)cc1`, for which, in the test on Echinochloa crus-galli [1], the lowest concentration to inhibit growth (MIC) was 1 µg/mL (≈ 3.05 µM). The Activity in the test with Echinochloa crus-galli [2] is listed as 0%; in the test with Oryza sativa [3], 91%; with Echinochloa crus-galli [4] it was 11%; with Echinochloa crus-galli [5] it was 0%; in the test with Oryza sativa [6] it was 71%.
